According to patent publication US10626112B2, “Heterocyclic sulfonamide derivative and medicine comprising same” (EA PHARMA CO., LTD., priority 2014, dated 2020):

Target: human TRPA1 (Homo sapiens (Human), UniProt O75762)
Assay: Measurement of TRPA1 antagonist activity (2): as (1), different lot of human TRPA1 expression plasmid
Format: cell-based
Conditions: 293T cells transfected with human TRPA1, allylisothiocyanate 20 μM stimulation, calcium fluorescence, read-out: hTRPA1 IC50
In short: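 HEK293T cells transiently transfected with human TRPA1 plasmid (different lot), loaded with Calcium4 dye in HBSS/20 mM HEPES pH 7.2. Test compound preincubated 10 min, then allylisothiocyanate added at 20 μM final and fluorescence change read for 5 min. IC50 from sigmoid fit of inhibition relative to AITC-alone and buffer controls.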

Chain of human TRPA1 (O75762 whole entry): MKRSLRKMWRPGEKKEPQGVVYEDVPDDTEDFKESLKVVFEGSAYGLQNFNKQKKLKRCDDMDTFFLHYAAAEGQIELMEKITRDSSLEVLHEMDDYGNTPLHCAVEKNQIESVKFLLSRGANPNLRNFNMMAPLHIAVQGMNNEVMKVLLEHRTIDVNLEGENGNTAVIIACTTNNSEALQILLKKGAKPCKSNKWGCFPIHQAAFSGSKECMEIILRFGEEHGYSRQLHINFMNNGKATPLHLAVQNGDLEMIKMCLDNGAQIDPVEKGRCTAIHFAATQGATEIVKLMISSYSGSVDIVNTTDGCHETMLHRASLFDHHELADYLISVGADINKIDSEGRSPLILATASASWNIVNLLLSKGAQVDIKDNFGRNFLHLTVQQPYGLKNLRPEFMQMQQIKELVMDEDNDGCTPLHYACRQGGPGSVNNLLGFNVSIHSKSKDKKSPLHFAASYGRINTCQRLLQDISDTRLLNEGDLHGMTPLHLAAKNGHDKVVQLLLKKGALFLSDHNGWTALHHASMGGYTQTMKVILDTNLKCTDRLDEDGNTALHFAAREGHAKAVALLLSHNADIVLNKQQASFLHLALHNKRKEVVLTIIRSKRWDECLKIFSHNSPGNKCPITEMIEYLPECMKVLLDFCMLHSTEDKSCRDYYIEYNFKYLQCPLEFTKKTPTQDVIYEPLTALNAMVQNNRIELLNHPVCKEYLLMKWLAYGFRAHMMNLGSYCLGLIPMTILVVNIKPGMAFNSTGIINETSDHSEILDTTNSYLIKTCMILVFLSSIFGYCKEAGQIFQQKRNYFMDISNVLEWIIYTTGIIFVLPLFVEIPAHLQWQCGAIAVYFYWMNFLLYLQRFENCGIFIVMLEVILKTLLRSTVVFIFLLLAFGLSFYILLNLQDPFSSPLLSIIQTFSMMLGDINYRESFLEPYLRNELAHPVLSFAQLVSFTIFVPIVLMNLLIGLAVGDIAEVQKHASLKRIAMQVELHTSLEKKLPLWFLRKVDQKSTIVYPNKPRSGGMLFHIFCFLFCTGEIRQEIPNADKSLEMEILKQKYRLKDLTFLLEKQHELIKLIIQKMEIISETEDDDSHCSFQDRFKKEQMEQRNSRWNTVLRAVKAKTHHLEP

| IC50 [nM] | Compound |
| --- | --- |
| 4.6 | O=C(NCc1cccc(-c2cnc(C(F)(F)F)cn2)c1)[C@@H]1CCN1S(=O)(=O)c1cc2cc(F)ccc2o1 [Example 392, (2S)-1-(5-fluorobenzofuran-2-yl)sulfonyl-N-[[3-[5-(trifluoromethyl)pyrazin-2-yl]phenyl]methyl]azetidine-2-carboxamide] |
| 9.1 | O=C(NCc1cc(-c2cnc(C(F)(F)F)cn2)ccn1)[C@@H]1CCN1S(=O)(=O)c1cc2cc(F)ccc2o1 [Example 393, (2S)-1-(5-fluorobenzofuran-2-yl)sulfonyl-N-[[4-[5-(trifluoromethyl)pyrazin-2-yl]-2-pyridyl]methyl]azetidine-2-carboxamide] |
| 11 | O=C(NCc1cc(-c2ncc(C(F)(F)F)cn2)ccn1)[C@@H]1CCN1S(=O)(=O)c1cc2cc(F)ccc2o1 [Example 394, (2S)-1-(5-fluorobenzofuran-2-yl)sulfonyl-N-[[4-[5-(trifluoromethyl)pyrimidin-2-yl]-2-pyridyl]methyl]azetidine-2-carboxamide] |
| 3.2 | O=C(NCc1cc(-c2ccc(OC(F)(F)F)cc2)ncn1)[C@@H]1CCN1S(=O)(=O)c1cc2cc(F)ccc2o1 [Example 395] |
| 7.6 | O=C(NCc1cc(-c2ccc(C(F)(F)F)cn2)cnn1)[C@@H]1CCCN1S(=O)(=O)c1cc2cc(F)ccc2o1 [Example 396, (2S)-1-(5-fluorobenzofuran-2-yl)sulfonyl-N-[[5-[5-(trifluoromethyl)-2-pyridyl]pyridazin-3-yl]methyl]pyrrolidine-2-carboxamide] |
| 6.8 | CN(C)c1nc(CNC(=O)[C@@H]2CCCN2S(=O)(=O)c2cc3cc(F)ccc3o2)cc(-c2ccc(C(F)(F)F)cc2O)n1 [Example 397, (2S)-N-[[2-(dimethylamino)-6-[2-hydroxy-4-(trifluoromethyl)phenyl]-pyrimidin-4-yl]methyl]-1-(5-fluorobenzofuran-2-yl)sulfonyl-pyrrolidine-2-carboxamide] |
| 21 | CN(C)c1nc(CNC(=O)[C@@H]2CCN2S(=O)(=O)c2cc3cc(F)ccc3o2)cc(-c2ccc(C(F)(F)F)cc2O)n1 [Example 398, (2S)-N-[[2-(dimethylamino)-6-[2-hydroxy-4-(trifluoromethyl)phenyl]-pyrimidin-4-yl]methyl]-1-(5-fluorobenzofuran-2-yl)sulfonyl-azetidine-2-carboxamide] |
| 2.5 | O=C(NCc1cccc(-c2cnc(C(F)(F)F)cn2)c1)[C@@H]1CCCN1S(=O)(=O)c1cc2cc(F)ccc2o1 [Example 399, (2S)-1-(5-fluorobenzofuran-2-yl)sulfonyl-N-[[3-[5-(trifluoromethyl)pyrazin-2-yl]phenyl]methyl]pyrrolidine-2-carboxamide] |
| 5.2 | O=C(NCc1cc(-c2ccc(C(F)(F)F)cn2)ncn1)[C@@H]1CCCN1S(=O)(=O)c1cc2cc(F)ccc2o1 [Example 400, (2S)-1-(5-fluorobenzofuran-2-yl)sulfonyl-N-[[6-[5-(trifluoromethyl)-2-pyridyl]pyrimidin-4-yl]methyl]pyrrolidine-2-carboxamide] |
| 12 | O=C(NCc1cc(-c2ccc(C(F)(F)F)cn2)ncn1)[C@@H]1CCN1S(=O)(=O)c1cc2cc(F)ccc2o1 [Example 401, (2S)-1-(5-fluorobenzofuran-2-yl)sulfonyl-N-[[6-[5-(trifluoromethyl)-2-pyridyl]pyrimidin-4-yl]methyl]azetidine-2-carboxamide] |
| 3.5 | O=C(NCc1ccnc(-c2cnc(C(F)(F)F)nc2)c1)[C@@H]1CCCN1S(=O)(=O)c1cc2cc(F)ccc2o1 [Example 402, (2S)-1-(5-fluorobenzofuran-2-yl)sulfonyl-N-[[2-[2-(trifluoromethyl)pyrimidin-5-yl]-4-pyridyl]methyl]pyrrolidine-2-carboxamide] |
| 13 | O=C(NCc1ccnc(-c2cnc(C(F)(F)F)nc2)c1)[C@@H]1CCN1S(=O)(=O)c1cc2cc(F)ccc2o1 [Example 403, (2S)-1-(5-fluorobenzofuran-2-yl)sulfonyl-N-[[2-[2-(trifluoromethyl)pyrimidin-5-yl]-4-pyridyl]methyl]azetidine-2-carboxamide] |
| 9.7 | O=C(NCc1ccc(O)c(-c2ccc(C(F)(F)F)cn2)c1)[C@@H]1CCN1S(=O)(=O)c1cc2cc(F)ccc2o1 [Example 404, (2S)-1-(5-fluorobenzofuran-2-yl)sulfonyl-N-[[4-hydroxy-3-[5-(trifluoromethyl)-2-pyridyl]phenyl]methyl]azetidine-2-carboxamide] |
| 3.5 | O=C(NCc1cc(-c2cnc(C(F)(F)F)cn2)ccn1)[C@@H]1CCCN1S(=O)(=O)c1cc2cc(F)ccc2o1 [Example 405, (2S)-1-(5-fluorobenzofuran-2-yl)sulfonyl-N-[[4-[5-(trifluoromethyl)pyrazin-2-yl]-2-pyridyl]methyl]pyrrolidine-2-carboxamide] |
| 2.7 | O=C(NCc1cc(-c2ccc(OC(F)(F)F)cc2)ncn1)[C@@H]1CCCN1S(=O)(=O)c1cc2cc(F)ccc2o1 [Example 406, (2S)-1-(5-fluorobenzofuran-2-yl)sulfonyl-N-[[6-[4-(trifluoromethoxy)phenyl]-pyrimidin-4-yl]methyl]pyrrolidine-2-carboxamide] |
| 7 | O=C(NCc1cc(-c2ncc(C(F)(F)F)cn2)ccn1)[C@@H]1CCCN1S(=O)(=O)c1cc2cc(F)ccc2o1 [Example 407, (2S)-1(5-fluorobenzofuran-2-yl)sulfonyl-N-[[4-[5-(trifluoromethyl)pyrimidin-2-yl]-2-pyridyl]methyl]pyrrolidine-2-carboxamide] |
| 16 | O=C(NCc1cc(-c2ccc(C(F)(F)F)nc2)ncn1)[C@@H]1CCN1S(=O)(=O)c1cc2ccccc2o1 [Example 408, (2S)-1-(benzofuran-2-ylsulfonyl)-N-[[6-[6-(trifluonomethyl)-3-pyridyl]pyrimidin-4-yl]methyl]azetidine-2-carboxamide] |
| 29 | O=C(NCc1cc(-c2cnc(C(F)(F)F)nc2)ncn1)[C@@H]1CCN1S(=O)(=O)c1cc2ccccc2o1 [Example 409, (2S)-1-(benzofuran-2-ylsulfonyl)-N-[[6-[2-(trifluoromethyl)pyrimidin-5-yl]pyrimidin-4-yl]methyl]azetidine-2-carboxamide] |
| 38 | CN(C)c1nc(CNC(=O)[C@@H]2CCN2S(=O)(=O)c2cc3ccccc3o2)cc(-c2ccc(C(F)(F)F)nc2)n1 [Example 410, (2S)-1-(benzofuran-2-ylsulfonyl)-N-[[2-(dimethylamino)-6-[6-(trifluoromethyl)-3-pyridyl]pyrimidin-4-yl]methyl]azetidine-2-carboxamide] |
| 25 | O=C(NCc1ccnc(-c2ccc(C(F)(F)F)cc2O)c1)[C@@H]1CCN1S(=O)(=O)c1cc2ccccc2o1 [Example 411, (2S)-1-(benzofuran-2-ylsulfonyl)-N-[[2-[2-hydroxy-4-(trifluoromethyl)phenyl]-4-pyridyl]methyl]azetidine-2-carboxamide] |
| 2.7 | O=C(NCc1cc(-c2ccc(C(F)(F)F)cc2O)ncn1)[C@@H]1CCN1S(=O)(=O)c1cc2cc(F)ccc2o1 [Example 412, (2S)-1-(5-fluorobenzofuran-2-yl)sulfonyl-N-[[6-[2-hydroxy-4-(trifluoromethyl)phenyl]pyrimidin-4-yl]methyl]azetidine-2-carboxamide] |
| 12 | CC(C)N(CC(=O)NCc1cc(-c2ccc(C(F)(F)F)cc2O)ncn1)S(=O)(=O)c1cc2cc(F)ccc2o1 [Example 413, 2-[(5-fluorobenzofuran-2-yl)sulfonyl-isopropyl-amino]-N-[[6-[2-hydroxy-4-(trifluoromethyl)phenyl]pyrimidin-4-yl]methyl]acetamide] |
| 34 | C[C@H](NS(=O)(=O)c1cc2cnccc2o1)C(=O)NCc1cc(-c2ccc(C(F)(F)F)cc2O)ncn1 [Example 414, (2S)-2-(furo[3,2-c]pyridin-2-ylsulfonylamino)-N-[[6-[2-hydroxy-4-(trifluoromethyl)phenyl]pyrimidin-4-yl]methyl]propanamide] |
| 4.2 | CCN([C@@H](C)C(=O)NCc1cc(-c2ccc(C(F)(F)F)cn2)ccn1)S(=O)(=O)c1cc2cc(F)ccc2o1 [Example 416, (2S)-2-[ethyl-(5-fluorobenzofuran-2-yl)sulfonyl-amino]-N-[[4-[5-(trifluoromethyl)-2-pyridyl]-2-pyridyl]methyl]propanamide] |
| 14 | C=CCN([C@@H](C)C(=O)NCc1cc(-c2ccc(C(F)(F)F)cn2)ccn1)S(=O)(=O)c1cc2cc(F)ccc2o1 [Example 417, (2S)-2-[allyl-(5-fluorobenzofuran-2-yl)sulfonyl-amino]-N-[[4-[5-(trifluoromethyl)-2-pyridyl]-2-pyridyl]methyl]propanamide] |
| 11 | C#CCN([C@@H](C)C(=O)NCc1cc(-c2ccc(C(F)(F)F)cn2)ccn1)S(=O)(=O)c1cc2cc(F)ccc2o1 [Example 418, (2S)-2-[(5-fluorobenzofuran-2-yl)sulfonyl-prop-2-ynylamino]-N-[[4-[5-(trifluoromethyl)-2-pyridyl]-2-pyridyl]methyl]propanamide] |
| 4.1 | CCN(CC(=O)NCc1cc(-c2ccc(C(F)(F)F)cc2)ncn1)S(=O)(=O)c1cc2cc(F)ccc2o1 [Example 419, 2-[ethyl-(5-fluorobenzofuran-2-yl)sulfonyl-amino]-N-[[6-[4-(trifluoromethyl)phenyl]pyrimidin-4-yl]methyl]acetamide] |
| 10 | CC(C)N(CC(=O)NCc1cc(-c2ccc(C(F)(F)F)cc2)ncn1)S(=O)(=O)c1cc2cc(F)ccc2o1 [Example 420, 2-[(5-fluorobenzofuran-2-yl)sulfonyl-isopropyl-amino]-N-[[6-[4-(trifluoromethyl)phenyl]pyrimidin-4-yl]methyl]acetamide] |
| 2.9 | C[C@@H](C(=O)NCc1cc(-c2ccc(C(F)(F)F)cc2)ncn1)N(C)S(=O)(=O)c1cc2cc(F)ccc2o1 [Example 421, (2S)-2-[(5-fluorobenzofuran-2-yl)sulfonyl-methyl-amino]-N-[[6-[4-(trifluoromethyl)phenyl]pyrimidin-4-yl]methyl]propanamide] |
